This note sets out measurements from patent US10538482B2, “Adamantane and memantine derivatives as peripheral NMDA receptor antagonists” (Institut National de la Santé et de la Recherche Médicale …, priority 2015, dated 2020).

pIC50: −log10 of the molar value. “And” between values parts separate entries of the source, which are not always exact repeats. Equal entries are not always repeated. Where two headings read alike, the source gives them in different places.

For one data set, the system named is NMDAR. Description: NMDAR blocking activity, whole-cell voltage clamp (patch-clamp) recordings from rat hippocampal neurons. Type of data set: cell-based. The note with it: read-out: IC50 (NMDAR antagonist activity).
A short description of data set [1]: In vivo brain penetration measurement in rat (plasma and brain concentration, Kp"brain"). The settings on record: for Brain concentration / Plasma concentration / concentration at 3.75 h: male Sprague-Dawley rat, end of 3.75 h constant-rate i.v. infusion; for Brain concentration / Plasma concentration / concentration at 3.75 h / Kp at 3.75 h / Kp"brain" (total brain/plasma concentration ratio at steady state): 4 mg/kg; for concentration at 3.75 h / Kp at 3.75 h: male, Sprague-Dawley, iv; for Kp at 3.75 h: brain/plasma; for Kp at 3.75 h / Kp"brain" (total brain/plasma concentration ratio at steady state): 3.75 h i.v. infusion. The method, then: The femoral vein of male Sprague-Dawley rats (CRL) weighing around 250 g was surgically catheterized at least 72 hours prior to the experiment. The drug was administered as 3.75 h constant-rate intravenous infusion to approach steady state, using a flow rate of 0.8 mL/h, corresponding to dosage of 4 mg/kg (1.067 mg/kg/h, i.e. 1 mg/rat of ˜250 g). The vehicle used was saline.
At the end of the infusion, the rats were anesthetized by inhalation of isoflurane, and blood was collected in a heparinized tube from the abdominal aorta, followed by immediate rinsing of the bloodstream for 2 minutes with saline at a rate of 15 mL/min using a peristaltic pump and left intraventricle cannula (flowing via right atrium). The brain (without cerebellum) was removed, and transferred in a tube and homogenized in two volumes of deionized water using a tissue homogenizer (Precellys24). All samples were stored at −20° C. until analysis. Plasma and brain homogenate sample preparation was performed using solid phase extraction on OASIS® WCX (Waters) and compounds were quantified by reversed phase liquid chromatography and positive electrospray ionization and multiple reaction monitoring mass spectrometry (LC-MS/MS).
This parameter is defined as the ratio of concentrations in brain and blood, Kp“brain” (Cbrain/Cplasma) or log(BB). Log(BB) is the logarithm of the ratio of the steady-state total concentration of a compound in the brain to that in the blood/plasma, log(BB)=log(Cbrain/Cplasma). This parameter depends upon the passive diffusion characteristics, the implication of membrane transporters at the BBB level and the relative drug binding affinity differences between the plasma proteins and brain tissue. Generally, compounds with a brain/plasma ratio of greater than 0.3-0.5 are considered to have sufficient access to the CNS, compounds with a value greater than 1 freely cross the BBB, whereas compounds with a brain/plasma ratio smaller than 0.1 may be unable to enter the CNS.
Thus, the brain penetration of memantine and Compound N^o1 was measured in rat by establishing the brain/plasma ratio, Kp“brain” in triplicate (3 rats/Compound). The three tables below (Tables 1-3) show the results on plasma concentration, brain concentration and calculation of the Kp“brain” for the two compounds memantine and Compound N^° 1.

Where [2] appears, read: rat hippocampal neurons, -60 mV, currents evoked by 100 μM NMDA and 20 μM D-serine.
The mark [3] stands for this setting: rat, brain, mean of 3 rats, read-out: Brain concentration, Mean.
[4] abbreviates: rat, rat, mean of 3 rats, read-out: Kp"brain", Mean.
[5] abbreviates: rat, plasma, individual rats, read-out: Plasma concentration.
Setting [6] is: rat, plasma, mean of 3 rats, read-out: Plasma concentration, Mean.

For the compound `CC[N+](C)(C)C12CC3CC(C)(CC(C)(C3)C1)C2` [Compound No2, N-Ethyl-N,N-3,5-tetramethyladamantan-1-ammonium iodide], in the data set on NMDAR (setting [2]), the pIC50 was 4.74.

With `CC12CC3CC(C)(C1)CC([N+](C)(C)CC1CC1)(C3)C2` [Compound No8, N-(Cyclopropylmethyl)-N,N-3,5-tetramethyladamantan-1-ammonium iodide], the pIC50 in the data set on NMDAR (setting [2]) was 5.46.

Consider `CCCC[N+](C)(C)C12CC3CC(C)(CC(C)(C3)C1)C2` [Compound No4, N-Butyl-N,N-3,5-tetramethyladamantan-1-ammonium iodide], for which the negative logarithm of the IC50 (pIC50) with NMDAR (setting [2]) is 3.96.

Take `CC12CC3CC(C)(C1)CC(N)(C3)C2` [Memantine, memantine]: the negative logarithm of the IC50 (pIC50) in the data set with NMDAR was 6.00. Also, the Brain concentration in data set [1] (individual rats) is 2977 ng/g and 3237 ng/g. Also, the Plasma concentration in data set [1] (individual rats) is 0.08869 µg/mL and 0.09485 µg/mL. Also, the concentration at 3.75 h is 3340 ng/g in data set [1] (rat, brain, individual rats, read-out: Brain concentration); 3180 ng/g in data set [1] (setting [3]); 0.123 µg/mL in data set [1] (setting [5]); 0.102 µg/mL in data set [1] (setting [6]). Further, the Kp at 3.75 h is 27.1 in data set [1] (rat, rat, individual rats, read-out: Kp"brain" (total brain/plasma concentration ratio at steady state)) and 31.6 in data set [1] (setting [4]). The “Penetration of the BBB / CNS (in words)” value in data set [1] (rat) was “penetrates freely across the BBB”. The “Kp"brain" (total brain/plasma concentration ratio at steady state)” value in data set [1] (rat, individual rats) was 33.57 and 34.13.

Take `CCC[N+](C)(C)C12CC3CC(C)(CC(C)(C3)C1)C2` [Compound No3, N-Propyl-N,N-3,5-tetramethyladamantan-1-ammonium iodide]: the negative-log IC50 (pIC50) in the data set with NMDAR (setting [2]) is 4.54.

Take `CC12CC3CC(C)(C1)CC([N+](C)(C)C)(C3)C2` [Compound No1′]: the pIC50 in the data set with NMDAR (rat hippocampal neurons, -60 mV, currents evoked by 100 μM NMDA and 20 μM D-serine, listed as Compound N^o1′) was ~5.00; in the data set with NMDAR (setting [2]), 4.94.

For the compound `CC12CC3CC(C)(C1)CC([N+](C)(C)CC1CCCCC1)(C3)C2` [Compound No9, N-(Cyclohexylmethyl)-N,N-3,5-tetramethyladamantan-1-ammonium iodide], the pIC50 in the data set on NMDAR (setting [2]) was 4.45.

Regarding `CC(C)CC[N+](C)(C)C12CC3CC(C)(CC(C)(C3)C1)C2` [Compound No6, N-isoPentyl-N,N-3-5-tetramethyladamantan-1-ammonium iodide], the pIC50 in the data set with NMDAR (setting [2]) is 4.84.

For the compound `CC12CC3CC(C)(C1)CC([N+](C)(C)C)(C3)C2` [Compound No1, N,N,N,3,5-Pentamethyladamantan-1-ammonium iodide], the pIC50 in the data set on NMDAR (setting [2]) is 5.00. The Brain concentration in data set [1] (individual rats) is 0.90 ng/g and 3.57 ng/g and 3.03 ng/g. Besides, the Plasma concentration in data set [1] (individual rats) was 0.02311 µg/mL and 0.02452 µg/mL. For the same compound, the concentration at 3.75 h in data set [1] (setting [3]) was found to be 2.5 ng/g; in data set [1] (setting [5]) it was 0.0348 µg/mL; in data set [1] (setting [6]) it was 0.0275 µg/mL. In data set [1] (setting [4]), the Kp at 3.75 h came out at 0.091. For the same compound, the “Kp"brain" (total brain/plasma concentration ratio at steady state)” value in data set [1] (rat, individual rats) was 0.15 and 0.09 and 0.04.
